Test results from US9283297B2, “Sanitary article comprising a microbe-inhibiting composition” (SCA HYGIENE PRODUCTS AB, priority 2006, dated 2016).
Several values for one entry are separate records, joined by “and”; a condition that tells them apart may be missing. Equal entries are not always repeated.

What was measured:
C. glabrata = assay: Example 1 Screening II: Lactobacillus cell-free filtrate, turbidity; type: cell-based, Candida glabrata; settings: three times concentrated
Text: (§1) Clinical isolates of Candida albicans and Candida glabrata were used as test strains. These were isolated from the vagina of women with vaginal candidiasis and from healthy females. Suspensions of lactobacilli grown in dMRSs broth (MRS broth without addition of sodium acetate) were centrifuged and sterile filtered. The filtrate is henceforth called Lactobacillus Cell-free Filtrate, LCF. A specified volume was transferred to wells of a micro titre plate and was let to air dry and thereafter resuspended in sterile distilled water to a concentration three times higher and transferred to 96-wells micro titre plates. Candida was added to all vials (three isolates of C. albicans and C. glabrata, respectively, were used). The inhibition was evaluated by visual observation of turbidity and graduated by two persons using a template on a scale from five to zero. The wells containing strong growth of Candida sp. in pure dMRSs-broth was graduated as five, while wells with no visual growth were graduated as zero.

C. albicans = assay: as above; type: cell-based, Candida albicans; settings: three times concentrated
Text: as §1

Candida albicans 702 = assay: Test 4: agar plug test, zones with no growth of Candida; type: cell-based; settings: for Zones around the plugs with no growth of Candida, Plug with LB931: ~10^7 LB 931 per plug
Text: The purpose of this test was to evaluate the enhanced Candida inhibition from Na-acetate in combination with growing cells of Lactobacillus plantarum LB 931. Two plates were made with M17 agar and two with MRS agar. MRS medium (developed by De Man, Rogosa and Sharpe), is a growth medium commonly used for Lactobacillus. MRS agar from Merck contains 5 g sodium acetate per litre agar. M17 (Oxoid) is a similar commercial substrate for Lactobacillus but without the addition of sodium acetate. The agars were prepared as described on the packages. Lactobacillus plantarum LB931 was cultivated in MRS broth in 37° C. with 5% CO2 for 24 hours. Candida albicans 702 was cultivated in M17 broth at 37° C. for 24 hours. Holes (Ø10 mm) were punched in the plates and filled with 250 μl plugs of agar mixtures containing ˜10^7 LB 931 in MRS agar). The plates were left for 30 minutes and then incubated 24 hours at 37° C. with 5% CO2. Overnight culture of C. albicans in M17 broth was diluted 10 times and 100 μl was spread on the surface of each plate. The plates were then incubated for 24 hours at 37° C. As controls, holes (Ø10 mm) were filled with only MRS agar. The plates were evaluated in respect to Candida growth inhibition. Zones around the plugs with no growth of Candida were measured (Ø mm).

| Substance | inhibition of growth of C. glabrata (C. glabrata) | inhibition of growth of C. albicans (C. albicans) | Zones around the plugs with no growth of Candida, Plug with LB931 (Candida albicans 702; M17 agar in the Petri dish (without sodium acetate)) | Candida growth inhibition, in words (Candida albicans 702; M17 agar plates (without sodium acetate)) | Zones around the plugs with no growth of Candida, Plug with LB931 (Candida albicans 702; MRS agar in the Petri dish (contains 5 g sodium acetate per litre)) | Candida growth inhibition zones, in words (Candida albicans 702; MRS agar plates (sodium acetate)) |
| --- | --- | --- | --- | --- | --- | --- |
| Lactobacillus fermentum Ess-1 | comprehensive capacity to inhibit growth of Candida | comprehensive capacity to inhibit growth of Candida | – | – | – | – |
| Lactobacillus plantarum LB 931 [LB931] | – | – | 0 Ø mm | substantially no inhibition of Candida | 18.8 Ø mm and 18.1 Ø mm | clear zones |
